Patent US8293768B2, “Organic compounds” (Novartis AG, priority 2006, dated 2012)

Structure (SMILES) | melting point [°C]
Cc1cc(N2CCN(CCc3ccccc3)C2=O)sc1C(=O)NCc1cccnc1 [Example 15.4, 3-methyl-5-(2-oxo-3-phenethylimidazolidin-1-yl)-N-(pyridin-3-ylmethyl)thiophene-2-carboxamide] | 95 to 97
Cc1nc(N2CCN(CC(=O)NCc3ccc(F)cc3)C2=O)sc1C(=O)NCc1ccccc1 [Example 15.5, N-benzyl-2-(3-(2-(4-fluorobenzylamino)-2-oxoethyl)-2-oxoimidazolidin-1-yl)-4-methylthiazole-5-carboxamide] | 232 to 234
Cc1nc(N2C(=O)N(Cc3ccc(F)cc3)CC2O)sc1C(=O)NCc1ccccc1 (stereo not shown) [Example 16, N-benzyl-2-(3-(4-fluorobenzyl)-5-hydroxy-2-oxoimidazolidin-1-yl)-4-methylthiazole-5-carboxamide] | 133 to 134
Cc1nc(N2C(=O)N(CCc3ccc(F)cc3)CC2O)sc1C(=O)NCc1cccnc1 (stereo not shown) [Example 16.1, 2-(3-(4-fluorophenethyl)-5-hydroxy-2-oxoimidazolidin-1-yl)-4-methyl-N-(pyridin-3-ylmethyl)thiazole-5-carboxamide] | 182 to 184
Cc1nc(N2C(=O)N(Cc3ccc(F)cc3)CC2O)sc1C(=O)NCc1cccnc1 (stereo not shown) [Example 16.2, 2-(3-(4-fluorobenzyl)-5-hydroxy-2-oxoimidazolidin-1-yl)-4-methyl-N-(pyridin-3-ylmethyl)thiazole-5-carboxamide] | 64 to 66
Cc1nc(N2C(=O)N(Cc3ccc(C(F)(F)F)cc3)CC2O)sc1C(=O)NCc1cccnc1 (stereo not shown) [Example 16.3, 2-(5-hydroxy-2-oxo-3-(4-(trifluoromethyl)benzyl)imidazolidin-1-yl)-4-methyl-N-(pyridin-3-ylmethyl)thiazole-5-carboxamide] | 171 to 172
Cc1nc(-n2ccn(Cc3ccc(F)cc3)c2=O)sc1C(=O)NCc1ccccc1 [Example 17, N-benzyl-2-(3-(4-fluorobenzyl)-2-oxo-2,3-dihydro-1H-imidazol-1-yl)-4-methylthiazole-5-carboxamide] | 167 to 168
Cc1nc(-n2ccn(CCc3ccc(F)cc3)c2=O)sc1C(=O)NCc1cccnc1 [Example 17.1, 2-(3-(4-fluorophenethyl)-2-oxo-2,3-dihydro-1H-imidazol-1-yl)-4-methyl-N-(pyridin-3-ylmethyl)thiazole-5-carboxamide] | 160 to 162
Cc1nc(-n2ccn(Cc3ccc(F)cc3)c2=O)sc1C(=O)NCc1cccnc1 [Example 17.2, 2-(3-(4-fluorobenzyl)-2-oxo-2,3-dihydro-1H-imidazol-1-yl)-4-methyl-N-(pyridin-3-ylmethyl)thiazole-5-carboxamide] | 158 to 159
Cc1nc(-n2cnn(Cc3c(C)noc3C)c2=O)sc1C(=O)NCc1cccnc1 [Example 19.7, 2-(1-((3,5-dimethylisoxazol-4-yl)methyl)-5-oxo-1H-1,2,4-triazol-4(5H)-yl)-4-methyl-N-(pyridin-3-ylmethyl)thiazole-5-carboxamide] | 233 to 234
Cc1nc(-n2cnn(CCO)c2=O)sc1C(=O)NCc1cccnc1 [Example 19.9, 2-(1-(2-hydroxyethyl)-5-oxo-1H-1,2,4-triazol-4(5H)-yl)-4-methyl-N-(pyridin-3-ylmethyl)thiazole-5-carboxamide] | 201 to 202
Cc1nc(-n2cnn(Cc3ccc(C(F)(F)F)cc3)c2=O)sc1C(=O)NCc1cccnc1 [Example 21, 4-methyl-2-(5-oxo-1-(4-(trifluoromethyl)benzyl)-1H-1,2,4-triazol-4(5H)-yl)-N-(pyridin-3-ylmethyl)thiazole-5-carboxamide] | 156 to 158
Cc1nc(-n2cnn(Cc3ccc(OC(F)F)cc3)c2=O)sc1C(=O)NCc1cccnc1 [Example 21.1, 2-(1-(4-(difluoromethoxy)benzyl)-5-oxo-1H-1,2,4-triazol-4(5H)-yl)-4-methyl-N-(pyridin-3-ylmethyl)thiazole-5-carboxamide] | 151 to 152
Cc1nc(-n2cnn(CCOc3ccc(F)cc3)c2=O)sc1C(=O)NCc1cccnc1 [Example 21.2, 2-(1-(2-(4-fluorophenoxy)ethyl)-5-oxo-1H-1,2,4-triazol-4(5H)-yl)-4-methyl-N-(pyridin-3-ylmethyl)thiazole-5-carboxamide] | 154 to 155
Cc1nc(-n2cnn(Cc3ccc(F)cc3)c2=O)sc1C(=O)NCc1cccnc1 [Example 21.3, 2-(1-(4-fluorobenzyl)-5-oxo-1H-1,2,4-triazol-4(5H)-yl)-4-methyl-N-(pyridin-3-ylmethyl)thiazole-5-carboxamide] | 178 to 179
Cc1nc(-n2cnn(CC3CC3)c2=O)sc1C(=O)NCc1cccnc1 [Example 21.4, 2-(1-(cyclopropylmethyl)-5-oxo-1H-1,2,4-triazol-4(5H)-yl)-4-methyl-N-(pyridin-3-ylmethyl)thiazole-5-carboxamide] | 116 to 117
Cc1nc(-n2cnn(Cc3ccc(C(F)(F)F)o3)c2=O)sc1C(=O)NCc1cccnc1 [Example 21.6, 4-methyl-2-(5-oxo-1-((5-(trifluoromethyl)furan-2-yl)methyl)-1H-1,2,4-triazol-4(5H)-yl)-N-(pyridin-3-ylmethyl)thiazole-5-carboxamide] | 124 to 125

Structure (SMILES) | melting point [°C]
Cc1nc(-n2cn[nH]c2=O)sc1C(=O)NCc1cccnc1 [Example 21.7, 4-methyl-2-(5-oxo-1H-1,2,4-triazol-4(5H)-yl)-N-(pyridin-3-ylmethyl)thiazole-5-carboxamide] | 278 to 279
Cc1nc(-n2cnn(Cc3ccc(F)cc3)c2=O)sc1C(=O)NCc1ncco1 [Example 21.8, 2-(1-(4-fluorobenzyl)-5-oxo-1H-1,2,4-triazol-4(5H)-yl)-4-methyl-N-(oxazol-2-ylmethyl)thiazole-5-carboxamide] | 152 to 153
Cc1nc(-n2cnn(Cc3ccc(F)cc3)c2=O)sc1C(=O)NCc1cc[nH]n1 [Example 21.9, N-((1H-pyrazol-3-yl)methyl)-2-(1-(4-fluorobenzyl)-5-oxo-1H-1,2,4-triazol-4(5H)-yl)-4-methylthiazole-5-carboxamide] | 178 to 179
Cc1nc(-n2cnn(Cc3ccc(F)cc3)c2=O)sc1C(=O)NCc1cnn(C)c1 [Example 21.10, 2-(1-(4-fluorobenzyl)-5-oxo-1H-1,2,4-triazol-4(5H)-yl)-4-methyl-N-((1-methyl-1H-pyrazol-4-yl)methyl)thiazole-5-carboxamide] | 205 to 206
Cc1ncc(CNC(=O)c2sc(-n3cnn(Cc4ccc(F)cc4)c3=O)nc2C)s1 [Example 21.11, 2-(1-(4-fluorobenzyl)-5-oxo-1H-1,2,4-triazol-4(5H)-yl)-4-methyl-N-((2-methylthiazol-5-yl)methyl)thiazole-5-carboxamide] | 176 to 177
Cc1nc(-n2cnn(Cc3ccc(F)cc3)c2=O)sc1C(=O)NCc1nccs1 [Example 21.12, 2-(1-(4-fluorobenzyl)-5-oxo-1H-1,2,4-triazol-4(5H)-yl)-4-methyl-N-(thiazol-2-ylmethyl)thiazole-5-carboxamide] | 189 to 190
Cc1nc(-n2cnn(Cc3ccc(F)cc3)c2=O)sc1C(=O)NCc1cn(C)cn1 [Example 21.14, 2-(1-(4-fluorobenzyl)-5-oxo-1H-1,2,4-triazol-4(5H)-yl)-4-methyl-N-((1-methyl-1H-imidazol-4-yl)methyl)thiazole-5-carboxamide] | 225 to 226
Cc1cnc(CNC(=O)c2sc(-n3cnn(Cc4ccc(F)cc4)c3=O)nc2C)cn1 [Example 21.15, 2-(1-(4-fluorobenzyl)-5-oxo-1H-1,2,4-triazol-4(5H)-yl)-4-methyl-N-((5-methylpyrazin-2-yl)methyl)thiazole-5-carboxamide] | 188 to 189
Cc1nc(N2CCNC2=O)sc1C(=O)NCc1ccccc1 [Example 22, N-benzyl-4-methyl-2-(2-oxoimidazolidin-1-yl)thiazole-5-carboxamide] | 226 to 228
Cc1nc(N2CCN(Cc3ccc(C#N)cc3)C2=O)sc1C(=O)NCc1ccccc1 [Example 23, N-benzyl-2-(3-(4-cyanobenzyl)-2-oxoimidazolidin-1-yl)-4-methylthiazole-5-carboxamide] | 176 to 178
Cc1nc(N2CCN(Cc3ccccc3C(F)(F)F)C2=O)sc1C(=O)NCc1ccccc1 [Example 23.1, N-benzyl-4-methyl-2-(2-oxo-3-(2-(trifluoromethyl)benzyl)imidazolidin-1-yl)thiazole-5-carboxamide] | 138 to 140
Cc1nc(N2CCN(Cc3cccc(F)c3)C2=O)sc1C(=O)NCc1ccccc1 [Example 23.3, N-benzyl-2-(3-(3-fluorobenzyl)-2-oxoimidazolidin-1-yl)-4-methylthiazole-5-carboxamide] | 155 to 156
Cc1nc(N2CCN(Cc3ccc(C(F)(F)F)o3)C2=O)sc1C(=O)NCc1ccccc1 [Example 23.4, N-benzyl-4-methyl-2-(2-oxo-3-((5-(trifluoromethyl)furan-2-yl)methyl)imidazolidin-1-yl)thiazole-5-carboxamide] | 143 to 145
Cc1nc(N2CCN(Cc3nc(C)n(-c4ccccc4)n3)C2=O)sc1C(=O)NCc1ccccc1 [Example 23.5, N-benzyl-4-methyl-2-(3-((5-methyl-1-phenyl-1H-1,2,4-triazol-3-yl)methyl)-2-oxoimidazolidin-1-yl)thiazole-5-carboxamide] | 139 to 141
Cc1nc(N2CCN(CCc3c[nH]c4ccccc34)C2=O)sc1C(=O)NCc1ccccc1 [Example 23.7, 2-(3-(2-(1H-indol-3-yl)ethyl)-2-oxoimidazolidin-1-yl)-N-benzyl-4-methylthiazole-5-carboxamide] | 215 to 217
COC(=O)c1cccc(CN2CCN(c3nc(C)c(C(=O)NCc4ccccc4)s3)C2=O)c1 [Example 23.9, methyl 3-((3-(5-(benzylcarbamoyl)-4-methylthiazol-2-yl)-2-oxoimidazolidin-1-yl)methyl)benzoate] | 49 to 51
COC(=O)c1ccccc1CN1CCN(c2nc(C)c(C(=O)NCc3ccccc3)s2)C1=O [Example 23.10, methyl 2-((3-(5-(benzylcarbamoyl)-4-methylthiazol-2-yl)-2-oxoimidazolidin-1-yl)methyl)benzoate] | 130 to 133
